According to US12102089B2, “Method for inactivating mold spores” (DSM IP ASSETS B.V., priority 2017, dated 2024):

Test system: Aspergillus niger ATCC 9029AA
Assay: Heat treatment of Aspergillus niger ATCC 9029AA spores in ice tea with natamycin, visual growth
Format: cell-based
Parameters: key to growth or no growth: growth (+); no growth (−)
Description: Commercially available ice tea (Lipton, peach flavor, non-carbonated, 1.5 L) was adjusted to high water hardness by adding 1 ml of a solution of 39 g CaCl2 and 27 g MgCl2 added to 934 g water. ⅓ of this ice tea preparation (the pH of which was 3.15) was left as-such, ⅓ of the preparation was enriched with 5 ppm natamycin and ⅓ of the preparation was enriched with 10 ppm natamycin. Samples of 5 ml were made from each preparation in 15 ml sterile plastic tubes. Of each preparation 8 samples were pre-heated to the desired pasteurization temperature using a water bath. Temperatures used were RT, 60, 65, 70, 75, 80, 85 and 90° C. When the desired temperature was reached, 100 μl of a 2500 spores/ml spore suspension of Aspergillus niger ATCC 9029AA was added to each tube. Subsequently, the samples were kept for 30 seconds at the temperature in question in the water bath. Next, the samples were cooled on ice to a temperature of 25° C. Samples were incubated at 25° C. and visually examined for growth (formation of mold flakes or turbidity) for two months. Additionally, samples were enumerated according to ISO protocol 21527-1.2008 on day 0 (before heat treatment) and day 1 (after heat treatment) to count immediate loss of viability. Enumeration was repeated after 1 month when samples remained free from visual mold growth; most counts were reduced to <10 after heat treatment, but were still able to grow. For the results, see Table 1.

C[C@@H]1C/C=C/C=C/C=C/C=C/[C@H](O[C@@H]2O[C@H](C)[C@@H](O)[C@H](N)[C@@H]2O)C[C@@H]2O[C@](O)(C[C@@H](O)C[C@H]3O[C@@H]3/C=C/C(=O)O1)C[C@H](O)[C@H]2C(=O)O [natamycin]
growth or no growth (60°C, 5 ppm, day 1): −
growth or no growth (60°C, 5 ppm, day 2): −
growth or no growth (60°C, 5 ppm, day 3): −
growth or no growth (60°C, 5 ppm, day 4): −
growth or no growth (60°C, 5 ppm, day 5): −
growth or no growth (60°C, 5 ppm, day 6): −
growth or no growth (60°C, 5 ppm, day 7): +
growth or no growth (60°C, 5 ppm, day 8): +
growth or no growth (60°C, 5 ppm, day 9): +
growth or no growth (60°C, 5 ppm, day 10): +
growth or no growth (60°C, 5 ppm, day 11): +
growth or no growth (60°C, 5 ppm, day 12): +
growth or no growth (60°C, 5 ppm, day 13): +
growth or no growth (60°C, 5 ppm, day 14): +
growth or no growth (60°C, 5 ppm, day 15): +
growth or no growth (60°C, 5 ppm, day 16): +
growth or no growth (60°C, 5 ppm, day 17): +
growth or no growth (60°C, 5 ppm, day 50): +
growth or no growth (60°C, 10 ppm, day 1): −
growth or no growth (60°C, 10 ppm, day 2): −
growth or no growth (60°C, 10 ppm, day 3): −
growth or no growth (60°C, 10 ppm, day 4): −
growth or no growth (60°C, 10 ppm, day 5): −
growth or no growth (60°C, 10 ppm, day 6): −
growth or no growth (60°C, 10 ppm, day 7): −
growth or no growth (60°C, 10 ppm, day 8): −
growth or no growth (60°C, 10 ppm, day 9): −
growth or no growth (60°C, 10 ppm, day 10): +
growth or no growth (60°C, 10 ppm, day 11): +
growth or no growth (60°C, 10 ppm, day 12): +
growth or no growth (60°C, 10 ppm, day 13): +
growth or no growth (60°C, 10 ppm, day 14): +
growth or no growth (60°C, 10 ppm, day 15): +
growth or no growth (60°C, 10 ppm, day 16): +
growth or no growth (60°C, 10 ppm, day 17): +
growth or no growth (60°C, 10 ppm, day 50): +
growth or no growth (65°C, 5 ppm, day 1): −
growth or no growth (65°C, 5 ppm, day 2): −
growth or no growth (65°C, 5 ppm, day 3): −
growth or no growth (65°C, 5 ppm, day 4): −
growth or no growth (65°C, 5 ppm, day 5): −
growth or no growth (65°C, 5 ppm, day 6): −
growth or no growth (65°C, 5 ppm, day 7): −
growth or no growth (65°C, 5 ppm, day 8): −
growth or no growth (65°C, 5 ppm, day 9): −
growth or no growth (65°C, 5 ppm, day 10): −
growth or no growth (65°C, 5 ppm, day 11): −
growth or no growth (65°C, 5 ppm, day 12): −
growth or no growth (65°C, 5 ppm, day 13): −
growth or no growth (65°C, 5 ppm, day 14): −
growth or no growth (65°C, 5 ppm, day 15): −
growth or no growth (65°C, 5 ppm, day 16): −
growth or no growth (65°C, 5 ppm, day 17): −
growth or no growth (65°C, 5 ppm, day 50): −
growth or no growth (65°C, 10 ppm, day 1): −
growth or no growth (65°C, 10 ppm, day 2): −
growth or no growth (65°C, 10 ppm, day 3): −
growth or no growth (65°C, 10 ppm, day 4): −
growth or no growth (65°C, 10 ppm, day 5): −
growth or no growth (65°C, 10 ppm, day 6): −
growth or no growth (65°C, 10 ppm, day 7): −
growth or no growth (65°C, 10 ppm, day 8): −
growth or no growth (65°C, 10 ppm, day 9): −
growth or no growth (65°C, 10 ppm, day 10): −
growth or no growth (65°C, 10 ppm, day 11): −
growth or no growth (65°C, 10 ppm, day 12): −
growth or no growth (65°C, 10 ppm, day 13): −
growth or no growth (65°C, 10 ppm, day 14): −
growth or no growth (65°C, 10 ppm, day 15): −
growth or no growth (65°C, 10 ppm, day 16): −
growth or no growth (65°C, 10 ppm, day 17): −
growth or no growth (65°C, 10 ppm, day 50): −
germination (70° C., in the presence of natamycin): no germination occurred
growth or no growth (70°C, 5 ppm, day 1): −
growth or no growth (70°C, 5 ppm, day 2): −
growth or no growth (70°C, 5 ppm, day 3): −
growth or no growth (70°C, 5 ppm, day 4): −
growth or no growth (70°C, 5 ppm, day 5): −
growth or no growth (70°C, 5 ppm, day 6): −
growth or no growth (70°C, 5 ppm, day 7): −
growth or no growth (70°C, 5 ppm, day 8): −
growth or no growth (70°C, 5 ppm, day 9): −
growth or no growth (70°C, 5 ppm, day 10): −
growth or no growth (70°C, 5 ppm, day 11): −
growth or no growth (70°C, 5 ppm, day 12): −
growth or no growth (70°C, 5 ppm, day 13): −
growth or no growth (70°C, 5 ppm, day 14): −
growth or no growth (70°C, 5 ppm, day 15): −
growth or no growth (70°C, 5 ppm, day 16): −
growth or no growth (70°C, 5 ppm, day 17): −
growth or no growth (70°C, 5 ppm, day 50): −
growth or no growth (70°C, 10 ppm, day 9): −
growth or no growth (70°C, 10 ppm, day 10): −
growth or no growth (70°C, 10 ppm, day 11): −
growth or no growth (70°C, 10 ppm, day 12): −
growth or no growth (70°C, 10 ppm, day 13): −
growth or no growth (70°C, 10 ppm, day 14): −
growth or no growth (70°C, 10 ppm, day 15): −
growth or no growth (70°C, 10 ppm, day 16): −
growth or no growth (70°C, 10 ppm, day 17): −
growth or no growth (70°C, 10 ppm, day 50): −
germination (RT and 60° C., 5 ppm natamycin): delayed germination
germination (RT and 60° C., 10 ppm natamycin): longer delay
